Consider two compounds from US9125913B2, “Bcl-2-selective apoptosis-inducing agents for the treatment of cancer and immune diseases” (AbbVie Inc., priority 2008, dated 2015).

For one assay, the target named is GST-Bcl-XL (Homo sapiens (Human), UniProt Q07817). Put plainly: TR-FRET binding assay, Bcl-XL. The following applies: GST-Bcl-XL 1 nM, F-Bak probe 100 nM, Tb-anti-GST 1 nM. The procedure: Tb-anti-GST antibody was purchased from Invitrogen (Catalog No. PV4216).
Representative compounds were serially diluted in dimethyl sulfoxide (DMSO) starting at 50 μM (2× starting concentration; 10% DMSO) and 10 μL were transferred into a 384-well plate.
The samples were then mixed on a shaker for 1 minute and incubated for an additional 3 hours at room temperature. For each assay, the probe/antibody and protein/probe/antibody were included on each assay plate as negative and positive controls, respectively. Fluorescence was measured on the Envision (Perkin Elmer) using a 340/35 nm excitation filter and 520/525 (F-Bak peptide) and 495/510 nm (Tb-labeled anti-Histidine antibody) emission filters.
The inhibition constant (Ki) is the dissociation constant of an enzyme-inhibitor complex or a protein/small molecule complex, wherein the small molecule is inhibiting binding of one protein to another protein or peptide. […] Inhibition constants were determined using Wang's equation (Wang Z-X., An Exact Mathematical Expression For Describing Competitive Binding Of Two Different Ligands To A Protein Molecule. FEBS Lett. 1995, 360:111-4).

The test system of a further assay is FL5.12/Bcl-2 cells. Put plainly: FL5.12/Bcl-2 cell viability assay. It counts as cell-based, murine. As to conditions: for Selectivity Ratio (Platelet EC50/FL5.12/Bcl-2 EC50): ratio of canine platelet EC50 to FL5.12/Bcl-2 EC50. The gist of the method:
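Murine IL-3-dependent FL5.12 cells stably overexpressing Bcl-2 were deprived of IL-3 (WEHI-3B conditioned medium) for 48 h, then exposed to various compound concentrations for 24 h at 37 °C. Viability read by CellTiter-Glo luminescence.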

Assay [1] relates to GST-Bcl-2. Put plainly: TR-FRET binding assay, Bcl-2. As to conditions: TR-FRET Ki values. The gist of the method:
(§1)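 Compounds serially diluted in DMSO from 50 μM (2× starting concentration, 10% DMSO), mixed with GST-tagged protein, F-Bak peptide probe and Tb-labeled antibody, incubated 3 h at room temperature.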
Background: Time-resolved FRET reads energy transfer from a long-lived donor to a nearby acceptor.

Assay [2] addresses GST-Bcl-2 (Homo sapiens (Human), UniProt P10415). Put plainly: TR-FRET binding assay, Bcl-2. The following applies: TR-FRET; GST-Bcl-2 1 nM, F-Bak probe 100 nM, Tb-anti-GST 1 nM. In outline:
as §1

For assay [3], the system named is isolated canine platelets. Put plainly: Platelet cell viability assay. It counts as cell-based. As to conditions: Canis lupus familiaris, 5 h; isolated canine platelets (platelet-rich plasma), five hours at 37° C., Cell Titer Glo. On the procedure:
After the incubation, platelets were equilibrated to room temperature for 20 minutes and then an equal volume of Cell Titer Glo reagent (Promega Corporation) was added. Samples were mixed for two minutes and then allowed to equilibrate for an additional 10 minutes at room temperature. The luminescence generated from the samples was quantitated using an LJL Analyst plate reader.
The effect of compounds on platelet survival can be directly evaluated ex vivo by examining the viability of isolated canine platelets in the presence of various concentrations of compound.
(In general: ATP-based viability assays read luminescence as a measure of living cells.)

A value given as a limit tells only on which side of the number the result lay.

Sequence of GST-Bcl-XL (Q07817 whole entry): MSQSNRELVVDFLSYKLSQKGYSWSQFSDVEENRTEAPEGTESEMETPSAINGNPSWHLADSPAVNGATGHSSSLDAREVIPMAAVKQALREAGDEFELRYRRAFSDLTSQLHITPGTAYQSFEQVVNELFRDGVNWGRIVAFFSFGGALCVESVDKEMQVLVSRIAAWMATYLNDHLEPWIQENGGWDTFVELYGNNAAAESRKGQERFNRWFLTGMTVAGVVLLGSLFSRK
Sequence of GST-Bcl-2 (Homo sapiens (Human), UniProt P10415) (P10415 whole entry, looked up): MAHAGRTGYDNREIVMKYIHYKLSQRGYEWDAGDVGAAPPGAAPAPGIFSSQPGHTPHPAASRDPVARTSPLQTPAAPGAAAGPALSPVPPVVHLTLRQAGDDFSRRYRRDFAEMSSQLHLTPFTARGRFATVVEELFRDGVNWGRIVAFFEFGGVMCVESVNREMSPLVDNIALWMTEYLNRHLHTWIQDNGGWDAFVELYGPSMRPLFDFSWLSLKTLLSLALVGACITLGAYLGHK

A word on the Ki: it is a dissociation constant, usually derived from enzyme kinetics or from competition with a known ligand. A higher Ki goes with weaker binding. On to `CN1CCC(Nc2ccc(S(=O)(=O)NC(=O)c3ccc(N4CCN(CC5=C(c6ccc(Cl)cc6)CC(C)(C)CC5)CC4)cc3Oc3ccc4[nH]ccc4c3)cc2S(=O)(=O)C(F)(F)F)CC1` [Example 76, 4-(4-{[2-(4-chlorophenyl)-4,4-dimethylcyclohex-1-en-1-yl]methyl}piperazin-1-yl)-2-(1H-indol-5-yloxy)-N-({4-[(1-methylpiperidin-4-yl)amino]-3-[(trifluoromethyl)sulfonyl]phenyl}sulfonyl)benzamide], for which the values for the inhibitory constant (Ki) at GST-Bcl-XL and at GST-Bcl-2 [2] were 10 µM and 0.05 nM, respectively. Moreover, in the assay on FL5.12/Bcl-2 cells, the “Selectivity Ratio (Platelet EC50/FL5.12/Bcl-2 EC50)” value stood at 221. In addition, the “Binding selectivity ratio (Bcl-XL Ki/Bcl-2 Ki)” value in the assay on GST-Bcl-2 [1] came to 64.5.

The term EC50 denotes the midpoint of the concentration-response curve. A low value points to greater potency. Turning to `CN1CCC(Nc2ccc(S(=O)(=O)NC(=O)c3ccc(N4CCN(CC5=C(c6ccc(Cl)cc6)CCC5)CC4)cc3Oc3cccc4[nH]ccc34)cc2[N+](=O)[O-])CC1` [Example 148, 4-(4-{[2-(4-chlorophenyl)cyclopent-1-en-1-yl]methyl}piperazin-1-yl)-2-(1H-indol-4-yloxy)-N-({4-[(1-methylpiperidin-4-yl)amino]-3-nitrophenyl}sulfonyl)benzamide], the EC50 stood at 120 µM in assay [3] and 0.07 µM in the assay with FL5.12/Bcl-2 cells (Mus musculus, FL5.12/Bcl-2 cells, IL-3 withdrawal, 24 hrs treatment, CellTitre Glo). In the assay on FL5.12/Bcl-2 cells, the “Selectivity Ratio (Platelet EC50/FL5.12/Bcl-2 EC50)” value amounted to 278. In the assay with GST-Bcl-2 [1], the “Binding selectivity ratio (Bcl-XL Ki/Bcl-2 Ki)” value was over 228.4.
